Results taken from patent publication US20240287052A1, “NOVEL OXAZOLE DERIVATIVE AND PHARMACEUTICAL COMPOSITION FOR PREVENTING OR TREATING ALLERGIC DISEASES COMPRISING THE SAME” (AZCURIS CO., LTD., priority 2021, published 2024).
Where two headings read alike, the source gives them in different places.

How the values were obtained:
[1] = biological target: T1, IL33 and ST2 binding (Homo sapiens, UniProt O95760);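 also: plate ELISA with coated Flag-tagged human IL-33 and His-tagged human ST2, bound ST2 detected by anti-His HRP and TMB absorbance at 450 nm, 2 h compound incubation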
T1 sequence (O95760 112-270 limits assumed): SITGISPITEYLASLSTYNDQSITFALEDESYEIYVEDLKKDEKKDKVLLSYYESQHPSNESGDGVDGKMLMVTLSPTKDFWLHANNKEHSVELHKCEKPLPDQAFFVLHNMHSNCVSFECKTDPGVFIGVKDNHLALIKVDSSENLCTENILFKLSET

[2] = biological target: T1, IL33 and ST2 binding; assay: biochemical
[3] = test system: Human liver cancer cell line HepG2 cells; assay: Cellular viability, WST-8 assay, without or with human liver microsomes; assay type: cell-based; conditions: for Cellular viability (%) (+) microsome: HepG2, with human liver microsomes; for Cellular viability (%) (−) microsome: HepG2, without human liver microsomes
Experimental: (§1) Human liver cancer cell line HepG2 cells were cultured in a medium (high glucose Dulbecco's Modified Eagle Medium, DMEM, HyClone) supplemented with 10% fetal bovine serum (FBS, HyClone) and 1% antibiotic in a thermostat maintained at 37° C. with 5% CO2.
(§2) HepG2 cells, which are adherent cells, were […] or presence of human liver microsomes (Gibco) and NADPH regenerating system.
(§3) Cell cultures were exchanged using […] of medium (high glucose Dulbecco's Modified Eagle Medium, DMEM, HyClone) and incubated for 24 hours.
(§4) After adding 10 μL of WST-8 (abCam), the absorbance was obtained at 460 nm after 5 seconds of orbital shaking with a microplate reader (Tecan, Spark©) 2 hours later.
(§5) The mean of the three values obtained in triplicate was calculated and expressed as % cellular viability compared to vehicle treatment.

[4] = as above; assay type: cell-based
Experimental: as §1, §2, §3, §4, §5

[5] = test system: IL-6 secretion in the human mast cell line HMC 1.1; assay: IL-6 production inhibition assay (IL-33 stimulated HMC 1.1 cells, IL-6 ELISA); assay type: cell-based; conditions: for inhibition at 1 µM: 1 μM compound, read-out: Inhibition of hIL-6 production (%) 1 μM; for inhibition at 1 µM / inhibition at 10 µM / inhibition at 0.1 µM: 24 hours; for inhibition at 10 µM: 10 μM compound, read-out: Inhibition of hIL-6 production (%) 10 μM; for EC50: read-out: Inhibition of hIL-6 production EC50; for inhibition at 0.1 µM: 0.1 μM compound, read-out: Inhibition of hIL-6 production (%) 0.1 μM
Experimental: Human mast cell line HMC 1.1 cells were cultured in medium (Iscove's Modified Dulbecco's Medium, IMDM, HyClone) supplemented with […] fetal bovine serum (FBS, HyClone) and 1% antibiotics and maintained at 37° C. with 5% CO2.
HMC 1.1 cells, which are non-adherent cells, were cultured in 0.5 mL of culture medium containing 200 nM of IL-33 wild type human recombinant protein after centrifugation of cells in culture flasks filled to […] capacity and incubated for 24 hours with […], 10 μM, 25 μM, 30 μM or 50 μM of Example compound.
Medium was harvested by centrifugation (2,000×g, 5 min) and stored at −80° C. until ELISA assay.
Experiments were performed according to the protocol using the Human IL-6 ELISA kit (abCam).
The average of the three values obtained in triplicate was calculated and the amount of IL-6 secretion was measured using a standard curve. The measured IL-6 secretion was converted to 100% based on the vehicle treatment sample value to obtain the vehicle %.

[6] = HepG2, with human liver microsomes, read-out: CC50 (μM) (+) microsome
[7] = HepG2 cells, HepG2, without human liver microsomes, read-out: CC50 (μM) (−) microsome

| Compound | inhibition ([1]; 30 µM) | inhibition ([1]; 100 µM) | IC50 [2] | EC50 [5] | Cellular viability (%) (+) microsome ([3]; at 100 μM) | Cellular viability (%) (−) microsome ([3]; at 100 μM) | CC50 at 24 h [4, 6] | CC50 at 24 h [4, 7] | inhibition at 1 µM [5] | inhibition at 10 µM [5] | Cellular viability (%) (+) microsome ([3]; at 135 μM) | Cellular viability (%) (−) microsome ([3]; at 135 μM) | inhibition at 0.1 µM [5] | Cellular viability (%) (+) microsome ([3]; at 160 μM) | Cellular viability (%) (−) microsome ([3]; at 160 μM) |
| --- | --- | --- | --- | --- | --- | --- | --- | --- | --- | --- | --- | --- | --- | --- | --- |
| CN(C)CCNC(=O)c1nc(-c2ccc([N+](=O)[O-])cc2)oc1-c1ccccc1[N+](=O)[O-] [Compound 277, N-(2-(Dimethylamino)ethyl)-5-(2-nitrophenyl)-2-(4-nitrophenyl)oxazole-4-carboxamide] | 60% | 111% | 14.4 µM | – | 49 at % | 46 at % | 46.2 µM | 25.4 µM | 27% | 31% | – | – | – | – | – |
| CCOC(=O)c1nc(-c2ccc(C(F)(F)F)cc2)oc1-c1cccc([N+](=O)[O-])c1 [Compound 33, Ethyl 5-(3-nitrophenyl)-2-(4-(trifluoromethyl)phenyl)oxazole-4-carboxylate] | 107% | 108% | 1.71 µM | – | 68 at % | 73 at % | 43.5 µM | 67 µM | 30% | 32% | – | – | – | – | – |
| CC(=O)N1CCN(CCNC(=O)c2nc(-c3ccc(C(F)(F)F)cc3)oc2-c2ccccc2[N+](=O)[O-])CC1 [Compound 284, N-(2-(4-acetylpiperazin-1-yl)ethyl)-5-(2-nitrophenyl)-2-(4-(trifluoromethyl)phenyl)oxazole-4-carboxamide] | 101% | 104% | 3.15 µM | – | 49 at % | 40 at % | 46.5 µM | 48.6 µM | 27% | 39% | – | – | – | – | – |
| CCOC(=O)c1nc(-c2ccc(C(F)(F)F)cc2)oc1-c1ccccc1OC(F)(F)F [Compound 52, Ethyl 5-(2-(trifluoromethoxy)phenyl)-2-(4-(trifluoromethyl)phenyl)oxazole-4-carboxylate] | 115% | 115% | 7.99 µM | 2.26 µM | 97 at % | 117 at % | – | – | 22% | 48% | – | – | – | – | – |

Second part, led by results:

| inhibition ([1]; 30 µM) | inhibition ([1]; 100 µM) | IC50 [2] | EC50 [5] | Compound | Cellular viability (%) (+) microsome ([3]; at 100 μM) | Cellular viability (%) (−) microsome ([3]; at 100 μM) | CC50 at 24 h [4, 6] | CC50 at 24 h [4, 7] | inhibition at 1 µM [5] | inhibition at 10 µM [5] | Cellular viability (%) (+) microsome ([3]; at 135 μM) | Cellular viability (%) (−) microsome ([3]; at 135 μM) | inhibition at 0.1 µM [5] | Cellular viability (%) (+) microsome ([3]; at 160 μM) | Cellular viability (%) (−) microsome ([3]; at 160 μM) |
| --- | --- | --- | --- | --- | --- | --- | --- | --- | --- | --- | --- | --- | --- | --- | --- |
| 81% | 97% | 6.46 µM | – | CN(C)CCNC(=O)c1nc(-c2ccc(C#N)cc2)oc1-c1ccccc1 [Compound 249, 2-(4-Cyanophenyl)-N-(2-(dimethylamino)ethyl)-5-phenyloxazole-4-carboxamide] | 50 at % | 43 at % | 29.1 µM | 19 µM | 8% | 35% | – | – | – | – | – |
| 110% | 112% | 1.13 µM | 0.09 µM | CCCNC(=O)c1nc(-c2ccc(C(F)(F)F)cc2)oc1-c1cccc(SC)c1 [Compound 292, 5-(3-(Methylthio)phenyl)-N-propyl-2-(4-(trifluoromethyl)phenyl)oxazole-4-carboxamide] | – | – | – | – | 39% | 42% | 58 at % | 55 at % | 29% | – | – |
| 110% | 112% | 4.78 µM | 6.15 µM | CN(C)CCNC(=O)c1nc(-c2ccc(Cl)cc2)oc1-c1ccccc1[N+](=O)[O-] [Compound 246, 2-(4-Chlorophenyl)-N-(2-(dimethylamino)ethyl)-5-(2-nitrophenyl)oxazole-4-carboxamide] | 52 at % | 47 at % | 16 µM | 11.8 µM | 20% | 45% | – | – | – | – | – |
| 112% | 111% | 0.64 µM | 0.49 µM | CCNC(=O)c1nc(-c2ccc(C(F)(F)F)cc2)oc1-c1cccc(SC)c1 [Compound 291, N-Ethyl-5-(3-(methylthio)phenyl)-2-(4-(trifluoromethyl)phenyl)oxazole-4-carboxamide] | – | – | – | – | 40% | 66% | – | – | 25% | 102 at % | 106 at % |
| 97% | 97% | 4.17 µM | 0.42 µM | CSc1ccc(-c2nc(C(=O)NCCN3CCN(C)CC3)c(-c3ccccc3)o2)cc1 [Compound 272, N-(2-(4-Methylpiperazin-1-yl)ethyl)-2-(4-(methylthio)phenyl)-5-phenyloxazole-4-carboxamide] | 49 at % | 46 at % | 5.6 µM | 4.73 µM | 52% | 79% | – | – | – | – | – |
